{"source": "ChEMBL document CHEMBL5030534", "about": "“Discovery of Novel Anti-Breast-Cancer Inhibitors by Synergistically Antagonizing Microtubule Polymerization and Aryl Hydrocarbon Receptor Expression” (J Med Chem, 2021)", "key": {"MCF7 [1]": {"system": "MCF7", "assay": "Induction of apoptosis in human MCF7 cells assessed as early apoptotic cells at 2 nM measured after 24 hrs in presence of DMBA by Annexin V-FITC and PI staining based flow cytometry assay (reference value: 1%)", "assay_type": "functional"}, "MCF7 [2]": {"system": "MCF7", "assay": "Inhibition of cell migration in human MCF7 cells at 2 nM incubated for 24 hrs in presence of DMBA by inverted fluorescence microscopic method (reference value: 11.51%)", "assay_type": "functional", "design": "scale not given: the % may be the effect or the level left"}}, "data": [{"smiles": "Cc1nc(N(C)c2ccc3c(c2)cc(C)n3C)c2ccccc2n1", "values": [{"measurement": "Activity", "setting": "MCF7 [1]", "result": 5, "unit": "%"}, {"measurement": "Activity", "setting": "MCF7 [2]", "result": 6.34, "unit": "%"}]}]}
